This note sets out measurements from US12097194B2, “Combination therapy for treating blood cancer” (SIGNALCHEM LIFESCIENCES CORPORATION, priority 2018, dated 2024).

Where two headings read alike, the source gives them in different places.

Usually IC50 stands for the concentration that gives 50% inhibition.

Test [1] has as its system Molm-13 AML cell line. In words: Compound dose response assay (trypan blue % viability) and CompuSyn combination analysis, Molm-13. It is filed as cell-based. Conditions: Homo sapiens. The protocol: (§1) The AML cell lines Molm-13 and MV4-11 were obtained from DSMZ. The cells were maintained in culture using RPMI-1640 containing 10% heat-inactivated serum at 37° C./5% CO2. For all experiments, unless otherwise specified, the above-mentioned culture conditions were used. The BCL-2 inhibitors venetoclax (ABT-199) and navitoclax (ABT-263) were purchased from Chemietek. The Axl inhibitor 3-(5-(cyclopropylmethyl)-1,3,4-oxadiazol-2-yl)-5-(1-(piperidin-4-yl)-1H-pyrazol-4-yl)pyridin-2-amine (Compound A) was synthesized according to the method disclosed in WO2015/081257.
(§2) The AML cells Molm-13 and MV4-11 were plated at 5×10^4 cells/mL in 24-well plates and dosed the following day using single or combination of drugs with vehicle (DMSO) only controls. Each cell treatment was conducted in duplicates. Cells were collected 48- or 72-hours post drug treatment, mixed 1:1 with trypan blue and counted manually using a hemocytometer. A total of 100 cells (at the least) were counted for each sample. The % viability was calculated and normalized to vehicle treated controls. Individual IC50 of each compound was determined in each cell line using increasing doses. Four doses less than the IC50 for each compound for each cell line were chosen to conduct the combination studies. The IC50 values were calculated using Prism Version 5.01. CompuSyn software Version 1.0 was used to calculate the combination indices.
(§3) The fraction affected (FA) at the same dose was much higher for the compound combination groups compared to that of the single compound groups.

Test [2] deals with MV4-11 AML cell line. In words: Compound dose response assay (trypan blue % viability) and CompuSyn combination analysis, MV4-11. Format: cell-based. Conditions: Homo sapiens. On the procedure:
as §1, §2, §3

Test [3] concerns CD34+ stem and progenitor cells from AML patients. Briefly: Patient-derived xenograft (PDX) model of AML in NRG-3GS mice. It is filed as in vivo. Conditions: 50 mg/kg QD each agent, oral gavage, 4 weeks, compared to healthy non-leukemic mice. An excerpt: The relative effectiveness of Compound A and the combination of Compound A and ABT-199 in targeting primitive leukemic cells and/or to prevent leukemia development were investigated in in vivo assays. First, highly purified CD34+ stem and progenitor cells from two different AML patients (with high Axl and GAS6 expression; cohort 1=AML patient #2, cohort 2=AML patient #14, as determined in Example 2) were transduced with a GFP/Luciferase lentivirus reporter to allow non-invasive in vivo imaging (IVIS) of the mice to track leukemia development. […]
Leukemic cell burden was also measured in peripheral blood (PB), bone marrow (BM) and spleens in one set of euthanized mice (one mouse from each treatment group in both cohorts, respectively) and immunophenotypes of engrafted cells determined with fluorescently-labelled CD45, CD34, CD38, CD33, CD15, CD14, CD19 surface markers. Splenomegaly was assessed by spleen sizes and weights (FIG. 5).
All remaining mice were monitored for symptoms of disease development (weight loss, lethargy etc.) and survival between treatment groups compared. […] P-values were calculated with the Log-rank (Mantel-Cox) test and significant differences between groups are indicated.

The subject of test [4] is MV4-11 cells. Briefly: MV4-11 cell line xenograft model of AML in NRG mice. Conditions: MV4-11 xenograft, 50 mg/kg QD each agent, oral; for bioluminescent signal (IVIS) / leukemia progression: 3 weeks (15 doses). Format: in vivo. On the procedure: To investigate the safety and the effectiveness of Compound A monotherapy and combination therapy with ABT-199 for eliminating human leukemic cells in animals, a cell-line based xenograft mouse study was performed. First, MV4-11 cells were transduced with a GFP/Luciferase lentivirus vector to allow sorting/analyzing of human leukemic cells in mice and the non-invasive in vivo imaging system (IVIS) of the mice to track leukemia development and leukemia forming sites. Then, 2.5 million of GFP positive MV4-11 cells per mouse were injected intravenously into irradiated male NRG mice. Two weeks after injection, IVIS imaging was performed to confirm leukemia formation and consistent levels of leukemia burden in each mouse. Following that, mice received 3 weeks (total of 15 doses) of oral treatment with vehicle (control), 50 mg/kg Compound A alone QD, 50 mg/kg ABT-199 alone QD or a combination of Compound A (50 mg/kg, QD) and ABT-199 (50 mg/kg, QD).
After the treatment period, another round of IVIS imaging was performed to evaluate the effectiveness of the treatments. FIG. 8A and FIG. 8B show the bioluminescent imaging of representative mice before treatment and after oral gavages with indicated treatments, respectively. Darkened areas represent sites of observed bioluminescence resultant from presence of GFP/Luciferase leukemic cells. For comparison, healthy mice with no transduced leukemic cells (“no cells”) are also shown.
A representative group of mice was then sacrificed to compare engraftment of leukemic cells in peripheral blood (PB), bone marrow (BM), spleens and livers of each treatment group. Infiltration of leukemic cells into hematopoietic organs as spleen and liver was assessed by weights and histopathologic analysis. FIGS. 9A and 9B show spleen sizes and weights, and Haemotoxylin and Eosin staining of representative mice from each treatment group as indicated, respectively.
The remaining mice were monitored for survival between treatment groups. […] Median survival for each treatment group is indicated in days in brackets. P-values were calculated with the Log-rank (Mantel-Cox) test and significant differences between groups are indicated.

Where [5] appears, read: BCL-2 inhibitor + Cmpd A, read-out: IC50 (nM) of BCL-2 inhibitor in the presence of Compound A.
Where [6] appears, read: single agent, % viability normalized to vehicle, 48 or 72 hours post treatment, read-out: IC50 (nM), single agent.

`CC1(C)CCC(CN2CCN(c3ccc(C(=O)NS(=O)(=O)c4ccc(NCC5CCOCC5)c([N+](=O)[O-])c4)c(Oc4cnc5[nH]ccc5c4)c3)CC2)=C(c2ccc(Cl)cc2)C1` [ABT-199, Venetoclax]: the IC50 in test [1] (setting [5]) stood at 9.9 nM; in test [1] (setting [6]), 55.9 nM; in test [2] (setting [5]) it was 0.99 nM; in test [2] (setting [6]) it was 20.5 nM. Also, the “splenomegaly (spleen sizes and weights)” value in test [3] was “significantly enlarged”. The “spleen enlargement (spleen sizes and weights)” value in test [4] (3 weeks) was “increased size and weight in the spleens”. For the same compound, the “bioluminescent signal (IVIS) / leukemia progression” value in test [4] is “aggressive leukemia progression”.

As for `Nc1ncc(-c2cnn(C3CCNCC3)c2)cc1-c1nnc(CC2CC2)o1` [Compound A, 3-(5-(cyclopropylmethyl)-1,3,4-oxadiazol-2-yl)-5-(1-(piperidin-4-yl)-1H-pyrazol-4-yl)pyridin-2-amine], the half-maximal inhibitory concentration (IC50) in test [1] (setting [6]) came out at 430 nM; in test [2] (setting [6]) it was 421 nM. The “splenomegaly (spleen sizes and weights)” value in test [3] is recorded as “significantly enlarged”. Moreover, the “leukemia propagating activity in vivo” value in test [4] (3 weeks) is “can reduce leukemia propagating activity in vivo”. Also, in test [4] (3 weeks), the “spleen enlargement (spleen sizes and weights)” value was “no sign of spleen enlargement”. Further, in test [4], the “bioluminescent signal (IVIS) / leukemia progression” value was “dramatically lower intensity bioluminescent signals compared to vehicle and ABT-199 treated mice”.

Take `CC1(C)CCC(c2ccc(Cl)cc2)=C(CN2CCN(c3ccc(C(=O)NS(=O)(=O)c4ccc(N[C@H](CCN5CCOCC5)CSc5ccccc5)c(S(=O)(=O)C(F)(F)F)c4)cc3)CC2)C1` [ABT-263, Navitoclax]: the concentration for half-maximal inhibition (IC50) in test [1] (setting [5]) was 116 nM; in test [1] (setting [6]), 358 nM; in test [2] (setting [5]), 36.8 nM; in test [2] (setting [6]) it was 93.5 nM.
